Source: patent US20220387479A1, “NOVEL POVIDONE-IODINE PHARMACEUTICAL PREPARATION AND USES THEREOF” (priority 2021, published 2022)
Read-outs that look alike come from different tables or passages of the source.

System: SARS-CoV-2, USA-WA1/2020 strain
Assay type: cell-based
Conditions: tested conc. 50%; for LRV (log reduction value): compared to the virus control; for Virus titer: lower limit of detection 0.67

CCO [Ethanol]
LRV (log reduction value) (incubation time 15 seconds): >4.0 | Virus titer (incubation time 15 seconds): <0.67 Log10 CCID50 of virus per 0.1 mL | LRV (log reduction value) (incubation time 30 seconds): >3.83 | Virus titer (incubation time 30 seconds): <0.67 Log10 CCID50 of virus per 0.1 mL | LRV (log reduction value) (incubation time 60 seconds): >4.0 | Virus titer (incubation time 60 seconds): <0.67 Log10 CCID50 of virus per 0.1 mL | LRV (log reduction value) (incubation time 5 minutes): >3.83 | Virus titer (incubation time 5 minutes): <0.67 Log10 CCID50 of virus per 0.1 mL
